# Laboratory results published in paper PMC6081437, “The potency of the broad spectrum bacteriocin, bactofencin A, against staphylococci is highly dependent on primary structure, N-terminal charge and disulphide formation” (Scientific Reports, 2018).
# Bridge positions count the residues as written; N and C are the ends. Square brackets hold non-standard residues; d marks the D form. Ends that are not written are not given here. Peptide text beside a SMILES is read from it.
# Assays:
# S. aureus DPC5246 = assay type: cell-based, Staphylococcus aureus; details: for Activity (Minimum Inhibitory Concentration, MIC): DPC5246, pH 6.8; for fold reduction in activity compared with bactofencin A (wild type): S. aureus DPC5246, agar well diffusion MIC
# Method in brief: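 Agar well diffusion assay: peptides in 50 mM sodium phosphate pH 6.8, 1-in-4 dilutions from 1000 µM stock (250 to 0.24 µM) applied to S. aureus DPC5246 indicator plates at 37 °C. MIC is the lowest concentration giving an inhibition zone, in triplicate; concentrations rounded to whole numbers.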
# Listeria innocua DPC3572 = assay type: cell-based
# Procedure: (§1) Peptides were resuspended at 1000 µM in 50 mM sodium phosphate buffer pH 6.8 and checked for purity by MALDI-TOF-MS. Peptides were serially diluted 1 in 4 to give a dilution series of 250, 62.50, 15.63, 3.91, 0.98 and 0.24 µM and assayed by the agar well diffusion assay described by Ryan et al.[19]. Briefly, 50 µl aliquots of each peptide concentration were plated on a S. aureus DPC5246 indicator plate and the plate incubated at 37 °C. Peptide activity (Minimum Inhibitory Concentration (MIC)) was taken as the lowest concentration of peptide to give a zone of inhibition. All assays were performed in triplicate. The dilution series values were rounded to the nearest whole number to give 1000, 250, 63, 16, 4, 1 and 0.25 µM and data is colour coded for ease of interpretation.
# (§2) Bactofencin R8Q and bactofencin R8K were synthesised as described above and their activity compared to bactofencin A against S. aureus DPC5246, Listeria innocua DPC3572 and L. monocytogenes ATCC 23074.
# [1] = tested on: L. monocytogenes ATCC 23074; assay type: cell-based, Listeria monocytogenes; details: ATCC 23074
# Procedure: as §1, §2
Molecule,"Activity (Minimum Inhibitory Concentration, MIC) (S. aureus DPC5246)",Activity (MIC) (Listeria innocua DPC3572),Activity (MIC) [1],fold reduction in activity compared with bactofencin A (wild type) (S. aureus DPC5246)
CSCC[C@@H]1NC(=O)CNC(=O)[C@H]([C@@H](C)O)NC(=O)[C@@H]2CCCN2C(=O)[C@H](CCSC)NC(=O)CNC(=O)[C@H](CC(N)=O)NC(=O)[C@H](CC(N)=O)NC(=O)[C@H](Cc2ccc(O)cc2)NC(=O)[C@H](C(C)C)NC(=O)[C@H](CCCNC(=N)N)NC(=O)[C@@H](NC(=O)[C@H](CCCNC(=N)N)NC(=O)[C@H](Cc2c[nH]cn2)NC(=O)[C@H](CCCCN)NC(=O)[C@H](CCCCN)NC(=O)[C@H](CCCNC(=N)N)NC(=O)[C@@H](N)CCCCN)CSSC[C@@H](C(=O)O)NC(=O)[C@H](Cc2c[nH]c3ccccc23)NC(=O)[C@H](CCCNC(=N)N)NC(=O)[C@H](Cc2ccc(O)cc2)NC1=O [bactofencin A] (H-KRKKHRCRVYNNGMPTGMYRWC-OH; disulfide 7-22),1 µM,63 µM,63 µM,–
CSCC[C@@H]1NC(=O)CNC(=O)[C@H]([C@@H](C)O)NC(=O)[C@H]2CCCN2C(=O)[C@H](CCSC)NC(=O)CNC(=O)[C@H](CC(N)=O)NC(=O)[C@H](CC(N)=O)NC(=O)[C@H](Cc2ccc(O)cc2)NC(=O)[C@H](C(C)C)NC(=O)[C@H](CCCNC(=N)N)NC(=O)[C@@H](NC(=O)[C@H](CCCNC(=N)N)NC(=O)[C@H](Cc2c[nH]cn2)NC(=O)[C@H](CCCCN)NC(=O)[C@H](CCCCN)NC(=O)[C@H](CCCNC(=N)N)NC(=O)[C@@H](N)CCCCN)CSSC[C@@H](C(=O)O)NC(=O)[C@H](Cc2c[nH]c3ccccc23)NC(=O)[C@H](CCCNC(=N)N)NC(=O)[C@H](Cc2ccc(O)cc2)NC1=O [P15Pd] (H-KRKKHRCRVYNNGM[dP]TGMYRWC-OH; disulfide 7-22; N-terminus assumed),> 1000 µM,–,–,–
CSCC[C@@H]1NC(=O)CNC(=O)[C@H]([C@@H](C)O)NC(=O)[C@@H]2CCCN2C(=O)[C@H](CCSC)NC(=O)CNC(=O)[C@H](CC(N)=O)NC(=O)[C@H](CC(N)=O)NC(=O)[C@H](Cc2ccc(O)cc2)NC(=O)[C@H](C(C)C)NC(=O)[C@H](CCCNC(=N)N)NC(=O)[C@@H](NC(=O)[C@H](C)NC(=O)[C@H](Cc2c[nH]cn2)NC(=O)[C@H](CCCCN)NC(=O)[C@H](CCCCN)NC(=O)[C@H](CCCNC(=N)N)NC(=O)[C@@H](N)CCCCN)CSSC[C@@H](C(=O)O)NC(=O)[C@H](Cc2c[nH]c3ccccc23)NC(=O)[C@H](CCCNC(=N)N)NC(=O)[C@H](Cc2ccc(O)cc2)NC1=O [R6A] (H-KRKKHACRVYNNGMPTGMYRWC-OH; disulfide 7-22),1 µM,–,–,–
CSCC[C@@H]1NC(=O)CNC(=O)[C@H]([C@@H](C)O)NC(=O)[C@@H]2CCCN2C(=O)[C@H](CCSC)NC(=O)CNC(=O)[C@H](CC(N)=O)NC(=O)[C@@H](CC(N)=O)NC(=O)[C@H](Cc2ccc(O)cc2)NC(=O)[C@H](C(C)C)NC(=O)[C@H](CCCNC(=N)N)NC(=O)[C@@H](NC(=O)[C@H](CCCNC(=N)N)NC(=O)[C@H](Cc2c[nH]cn2)NC(=O)[C@H](CCCCN)NC(=O)[C@H](CCCCN)NC(=O)[C@H](CCCNC(=N)N)NC(=O)[C@@H](N)CCCCN)CSSC[C@@H](C(=O)O)NC(=O)[C@H](Cc2c[nH]c3ccccc23)NC(=O)[C@H](CCCNC(=N)N)NC(=O)[C@H](Cc2ccc(O)cc2)NC1=O [N11Nd] (H-KRKKHRCRVY[dN]NGMPTGMYRWC-OH; disulfide 7-22; N-terminus assumed),> 1000 µM,–,–,–
CSCC[C@@H]1NC(=O)CNC(=O)[C@H]([C@@H](C)O)NC(=O)[C@@H]2CCCN2C(=O)[C@H](CCSC)NC(=O)CNC(=O)[C@H](CC(N)=O)NC(=O)[C@H](CC(N)=O)NC(=O)[C@H](Cc2ccc(O)cc2)NC(=O)[C@@H](C(C)C)NC(=O)[C@H](CCCNC(=N)N)NC(=O)[C@@H](NC(=O)[C@H](CCCNC(=N)N)NC(=O)[C@H](Cc2c[nH]cn2)NC(=O)[C@H](CCCCN)NC(=O)[C@H](CCCCN)NC(=O)[C@H](CCCNC(=N)N)NC(=O)[C@@H](N)CCCCN)CSSC[C@@H](C(=O)O)NC(=O)[C@H](Cc2c[nH]c3ccccc23)NC(=O)[C@H](CCCNC(=N)N)NC(=O)[C@H](Cc2ccc(O)cc2)NC1=O [V9Vd] (H-KRKKHRCR[dV]YNNGMPTGMYRWC-OH; disulfide 7-22; N-terminus assumed),63 µM,–,–,63 fold
KRKKHRARVYNNGMPTGMYRWC-OH [C7A],16 µM,–,–,16 fold
CSCC[C@@H]1NC(=O)CNC(=O)[C@H]([C@@H](C)O)NC(=O)[C@@H]2CCCN2C(=O)[C@H](C)NC(=O)CNC(=O)[C@H](CC(N)=O)NC(=O)[C@H](CC(N)=O)NC(=O)[C@H](Cc2ccc(O)cc2)NC(=O)[C@H](C(C)C)NC(=O)[C@H](CCCNC(=N)N)NC(=O)[C@@H](NC(=O)[C@H](CCCNC(=N)N)NC(=O)[C@H](Cc2c[nH]cn2)NC(=O)[C@H](CCCCN)NC(=O)[C@H](CCCCN)NC(=O)[C@H](CCCNC(=N)N)NC(=O)[C@@H](N)CCCCN)CSSC[C@@H](C(=O)O)NC(=O)[C@H](Cc2c[nH]c3ccccc23)NC(=O)[C@H](CCCNC(=N)N)NC(=O)[C@H](Cc2ccc(O)cc2)NC1=O [M14A] (H-KRKKHRCRVYNNGAPTGMYRWC-OH; disulfide 7-22),16 µM,–,–,–
CSCC[C@@H]1NC(=O)CNC(=O)[C@H]([C@@H](C)O)NC(=O)[C@@H]2CCCN2C(=O)[C@H](CCSC)NC(=O)CNC(=O)[C@H](CC(N)=O)NC(=O)[C@H](CC(N)=O)NC(=O)[C@H](Cc2ccc(O)cc2)NC(=O)[C@H](C(C)C)NC(=O)[C@H](CCCNC(=N)N)NC(=O)[C@@H](NC(=O)[C@H](CCCNC(=N)N)NC(=O)[C@H](Cc2c[nH]cn2)NC(=O)[C@H](CCCCN)NC(=O)[C@H](CCCCN)NC(=O)[C@H](CCCNC(=N)N)NC(=O)[C@@H](N)CCCCN)CSSC[C@@H](C(=O)O)NC(=O)[C@H](Cc2c[nH]c3ccccc23)NC(=O)[C@@H](CCCNC(=N)N)NC(=O)[C@H](Cc2ccc(O)cc2)NC1=O [R20Rd] (H-KRKKHRCRVYNNGMPTGMY[dR]WC-OH; disulfide 7-22; N-terminus assumed),4 µM,–,–,–
CSCC[C@@H]1NC(=O)CNC(=O)[C@H]([C@@H](C)O)NC(=O)[C@@H]2CCCN2C(=O)[C@H](CCSC)NC(=O)CNC(=O)[C@H](CC(N)=O)NC(=O)[C@H](CC(N)=O)NC(=O)[C@H](Cc2ccc(O)cc2)NC(=O)[C@H](C(C)C)NC(=O)[C@H](CCCNC(=N)N)NC(=O)[C@@H](NC(=O)[C@H](CCCNC(=N)N)NC(=O)[C@H](Cc2c[nH]cn2)NC(=O)[C@H](CCCCN)NC(=O)[C@H](CCCCN)NC(=O)[C@H](CCCNC(=N)N)NC(=O)[C@@H](N)CCCCN)CSSC[C@@H](C(=O)O)NC(=O)[C@@H](Cc2c[nH]c3ccccc23)NC(=O)[C@H](CCCNC(=N)N)NC(=O)[C@H](Cc2ccc(O)cc2)NC1=O [W21Wd] (H-KRKKHRCRVYNNGMPTGMYR[dW]C-OH; disulfide 7-22; N-terminus assumed),4 µM,–,–,–
CSCC[C@@H]1NC(=O)CNC(=O)[C@H](C)NC(=O)[C@@H]2CCCN2C(=O)[C@H](CCSC)NC(=O)CNC(=O)[C@H](CC(N)=O)NC(=O)[C@H](CC(N)=O)NC(=O)[C@H](Cc2ccc(O)cc2)NC(=O)[C@H](C(C)C)NC(=O)[C@H](CCCNC(=N)N)NC(=O)[C@@H](NC(=O)[C@H](CCCNC(=N)N)NC(=O)[C@H](Cc2c[nH]cn2)NC(=O)[C@H](CCCCN)NC(=O)[C@H](CCCCN)NC(=O)[C@H](CCCNC(=N)N)NC(=O)[C@@H](N)CCCCN)CSSC[C@@H](C(=O)O)NC(=O)[C@H](Cc2c[nH]c3ccccc23)NC(=O)[C@H](CCCNC(=N)N)NC(=O)[C@H](Cc2ccc(O)cc2)NC1=O [T16A] (H-KRKKHRCRVYNNGMPAGMYRWC-OH; disulfide 7-22),16 µM,–,–,–
CSCC[C@@H]1NC(=O)CNC(=O)[C@H]([C@@H](C)O)NC(=O)[C@@H]2CCCN2C(=O)[C@@H](CCSC)NC(=O)CNC(=O)[C@H](CC(N)=O)NC(=O)[C@H](CC(N)=O)NC(=O)[C@H](Cc2ccc(O)cc2)NC(=O)[C@H](C(C)C)NC(=O)[C@H](CCCNC(=N)N)NC(=O)[C@@H](NC(=O)[C@H](CCCNC(=N)N)NC(=O)[C@H](Cc2c[nH]cn2)NC(=O)[C@H](CCCCN)NC(=O)[C@H](CCCCN)NC(=O)[C@H](CCCNC(=N)N)NC(=O)[C@@H](N)CCCCN)CSSC[C@@H](C(=O)O)NC(=O)[C@H](Cc2c[nH]c3ccccc23)NC(=O)[C@H](CCCNC(=N)N)NC(=O)[C@H](Cc2ccc(O)cc2)NC1=O [M14Md] (H-KRKKHRCRVYNNG[dM]PTGMYRWC-OH; disulfide 7-22; N-terminus assumed),63 µM,–,–,63 fold
